Experimental data: patent publication US7186727B2, “Pyridyl-substituted spiro-hydantoin compounds and use thereof” (Bristol-Myers Squibb Company, priority 2004, dated 2007)

Test: Microsomal liver assay (rate of oxidative metabolism)
Format: in vitro ADME
Conditions: human liver microsomes; 3 μM test compound, 1 mg/mL microsomal proteins, 37° C.
Method: Mouse and rat liver microsomes were purchased from XenoTech LLC (Kansas City, Kans.), and human liver microsomes were obtained from BD Gentest (Woburn, Mass.).
The oxidative metabolism in liver microsomes of various species was studied under the following condition: 3 μM test compound (organic solvent content <0.1%), 1 mg/mL microsomal proteins, 1 mM β-nicotinamide adenine dinucleotide phosphase (β-NADPH), 100 mM phosphate buffer (pH 7.4), and 6.7 MM magnesium chloride. The reaction (n=3) was initiated by the addition of NADPH followed by incubation at 37° C. for 20 min. Aliquots of samples (0.1 mL) were taken at 0, 5, and 20 min, and the reaction was quenched by the addition of three volumes of acetonitrile. Samples were stored at −20° C. until analysis.
The rate of oxidation in liver microsomes was determined from the following equation: rate (nmol/min/mg protein)=k*C0/Cprotein, where k (1/min) is the turnover rate constant estimated from non-linear regression of the percent compound remaining (y)-time (t) curve using the equation y=y0*exp(−k*t); C0 is initial drug concentration (μM), and Cprotein is microsomal protein concentration (mg/mL).
Rates of metabolism are “binned” (classified) as follows: […]

rate of metabolism: 0.2 nmol/min/mg
Compound: CN1C(=O)N(c2cc(Cl)cc(Cl)c2)C(=O)[C@]12CN(c1ccccn1)C[C@H]2c1ccc(C#N)cc1 (relative stereo) [4-[(5S*,9R *)-3-(3,5-dichlorophenyl)-1-methyl-2,4-dioxo-7-pyridin-2-yl-1,3,7-triazaspiro[4.4]non-9-yl]-benzonitrile]
